Assay results as given in PubChem BioAssay (NCI).
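Where inhibition never reached the appropriate level, the endpoint shown equals the highest concentration tested. Otherwise, values were interpolated linearly from a five-concentration, 48-hour dose response in 96-well plates. GI50 is the concentration that inhibits growth by half. TGI marks complete inhibition of growth.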

What was measured:
Test in all cases: inhibition of tumour cell growth, NCI panel, 48 h
NCI-H522 lung = tested on: NCI-H522 lung
CCRF-CEM leukemia = tested on: CCRF-CEM leukemia
NCI/ADR-RES ovarian = tested on: NCI/ADR-RES ovarian
T-47D breast = tested on: T-47D breast
SK-MEL-2 melanoma = tested on: SK-MEL-2 melanoma
RXF 393 renal = tested on: RXF 393 renal
U251 CNS = tested on: U251 CNS
OVCAR-5 ovarian = tested on: OVCAR-5 ovarian
OVCAR-4 ovarian = tested on: OVCAR-4 ovarian
A549 NSCLC = tested on: A549 NSCLC

Structure (SMILES): COc1cnc2c(c1)C(=O)c1c-2n(CCCNC(C)C)c(=O)c2cc([N+](=O)[O-])ccc12
- GI50 (NCI-H522 lung): 23.3 nM
- TGI (NCI-H522 lung): 158 nM
- GI50 (CCRF-CEM leukemia): 29 nM
- TGI (CCRF-CEM leukemia): 658 nM
- GI50 (NCI/ADR-RES ovarian): 34.3 nM
- TGI (NCI/ADR-RES ovarian): 267 nM
- GI50 (T-47D breast): 39.3 nM
- TGI (T-47D breast): 1140 nM
- GI50 (SK-MEL-2 melanoma): 195 nM
- TGI (SK-MEL-2 melanoma): 406 nM
- GI50 (RXF 393 renal): 56.2 nM
- TGI (RXF 393 renal): 1380 nM
- GI50 (U251 CNS): 30.3 nM
- TGI (U251 CNS): 158 nM
- GI50 (OVCAR-5 ovarian): 155 nM
- TGI (OVCAR-5 ovarian): 624 nM
- GI50 (OVCAR-4 ovarian): 179 nM
- TGI (OVCAR-4 ovarian): 807 nM

Structure (SMILES): CCN(CC)CC[n+]1cc2cc(OC)c(OC)cc2c2ccc3cc4c(cc3c21)OCO4
- GI50 (A549 NSCLC): 376 nM
- TGI (A549 NSCLC): 1840 nM
- GI50 (NCI-H522 lung): 255 nM
- TGI (NCI-H522 lung): 1050 nM
- GI50 (CCRF-CEM leukemia): 325 nM
- TGI (CCRF-CEM leukemia): 20100 nM
- GI50 (NCI/ADR-RES ovarian): 3720 nM
- TGI (NCI/ADR-RES ovarian): 22000 nM
- GI50 (T-47D breast): 378 nM
- TGI (T-47D breast): 12100 nM
- GI50 (SK-MEL-2 melanoma): 1640 nM
- TGI (SK-MEL-2 melanoma): 4590 nM
- GI50 (RXF 393 renal): 783 nM
- TGI (RXF 393 renal): 2450 nM
- GI50 (U251 CNS): 308 nM
- TGI (U251 CNS): 1290 nM
- GI50 (OVCAR-5 ovarian): 1010 nM
- TGI (OVCAR-5 ovarian): 3170 nM
- GI50 (OVCAR-4 ovarian): 775 nM
- TGI (OVCAR-4 ovarian): 4160 nM

Structure (SMILES): Fc1cccc(-c2[nH]nc3nc(Nc4cccnc4)sc23)c1
- GI50 (A549 NSCLC): 4180 nM
- TGI (A549 NSCLC): > 100000 nM
- GI50 (NCI-H522 lung): 13700 nM
- TGI (NCI-H522 lung): > 100000 nM
- GI50 (CCRF-CEM leukemia): 3500 nM
- TGI (CCRF-CEM leukemia): > 100000 nM
- GI50 (NCI/ADR-RES ovarian): 1830 nM
- TGI (NCI/ADR-RES ovarian): > 100000 nM
- GI50 (T-47D breast): 8690 nM
- TGI (T-47D breast): > 100000 nM
- GI50 (SK-MEL-2 melanoma): 42200 nM
- TGI (SK-MEL-2 melanoma): > 100000 nM
- GI50 (RXF 393 renal): 3100 nM
- TGI (RXF 393 renal): > 100000 nM
- GI50 (U251 CNS): 1010 nM
- TGI (U251 CNS): > 100000 nM
- GI50 (OVCAR-5 ovarian): > 100000 nM
- TGI (OVCAR-5 ovarian): > 100000 nM
- GI50 (OVCAR-4 ovarian): 16100 nM
- TGI (OVCAR-4 ovarian): > 100000 nM

Structure (SMILES): C=CCSSc1ncnc2c1ncn2C1OC(CO)C(O)C1O (centres undefined)
- GI50 (A549 NSCLC): 21900 nM
- TGI (A549 NSCLC): > 100000 nM
- GI50 (NCI-H522 lung): 1340 nM
- TGI (NCI-H522 lung): 10700 nM
- GI50 (CCRF-CEM leukemia): 460 nM
- TGI (CCRF-CEM leukemia): 4500 nM
- GI50 (NCI/ADR-RES ovarian): 3860 nM
- TGI (NCI/ADR-RES ovarian): > 100000 nM
- GI50 (T-47D breast): 976 nM
- TGI (T-47D breast): > 100000 nM
- GI50 (SK-MEL-2 melanoma): 6250 nM
- TGI (SK-MEL-2 melanoma): > 41900 nM
- GI50 (RXF 393 renal): 6930 nM
- TGI (RXF 393 renal): 27100 nM
- GI50 (U251 CNS): 13500 nM
- TGI (U251 CNS): > 100000 nM
- GI50 (OVCAR-5 ovarian): 4290 nM
- TGI (OVCAR-5 ovarian): > 100000 nM
- GI50 (OVCAR-4 ovarian): 782 nM
- TGI (OVCAR-4 ovarian): > 100000 nM

Structure (SMILES): CC[CH2][Sn]([CH2]CC)([O]C(=O)Cc1ccc(F)cc1)[O][Sn]([CH2]CC)([CH2]CC)[O]C(=O)Cc1ccc(F)cc1
- GI50 (A549 NSCLC): 1880 nM
- TGI (A549 NSCLC): 4710 nM
- TGI (NCI-H522 lung): 32.2 nM
- TGI (CCRF-CEM leukemia): 1120 nM
- GI50 (NCI/ADR-RES ovarian): 574 nM
- TGI (NCI/ADR-RES ovarian): 1930 nM
- GI50 (T-47D breast): 29.6 nM
- TGI (T-47D breast): 211 nM
- GI50 (SK-MEL-2 melanoma): 115 nM
- TGI (SK-MEL-2 melanoma): 393 nM
- GI50 (RXF 393 renal): 28.6 nM
- TGI (RXF 393 renal): 126 nM
- GI50 (U251 CNS): 131 nM
- TGI (U251 CNS): 431 nM
- GI50 (OVCAR-5 ovarian): 1440 nM
- TGI (OVCAR-5 ovarian): 2840 nM
- GI50 (OVCAR-4 ovarian): 276 nM
- TGI (OVCAR-4 ovarian): 1230 nM

Structure (SMILES): N#Cc1nn(-c2cc(=O)[nH]c3ccc(Br)cc23)c(N)c1C#N
- GI50 (A549 NSCLC): > 100000 nM
- TGI (A549 NSCLC): > 100000 nM
- GI50 (NCI-H522 lung): 22700 nM
- TGI (NCI-H522 lung): 86400 nM
- GI50 (CCRF-CEM leukemia): > 100000 nM
- TGI (CCRF-CEM leukemia): > 100000 nM
- GI50 (NCI/ADR-RES ovarian): > 100000 nM
- TGI (NCI/ADR-RES ovarian): > 100000 nM
- GI50 (T-47D breast): 6460 nM
- TGI (T-47D breast): > 100000 nM
- GI50 (SK-MEL-2 melanoma): > 100000 nM
- TGI (SK-MEL-2 melanoma): > 100000 nM
- GI50 (RXF 393 renal): > 100000 nM
- TGI (RXF 393 renal): > 100000 nM
- GI50 (U251 CNS): 88100 nM
- TGI (U251 CNS): > 100000 nM
- GI50 (OVCAR-5 ovarian): > 100000 nM
- TGI (OVCAR-5 ovarian): > 100000 nM
